Molecular target: T1, Human autotaxin enzyme (Homo sapiens, UniProt Q13822)
T1 construct: purchased R&D System
Experiment: Evaluation of autotaxin inhibitor, Method C (18:0 Lyso PC substrate, choline assay, Resorufin fluorescence)
Assay type: biochemical
Settings: Method C (Test Example 3), read-out: Inhibitory activity (enzyme inhibitory activity, IC50)
Procedure, shortened: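 Recombinant human autotaxin with compound and 200 μM 18:0 Lyso PC (stock) in Tris-HCl pH 7.5, NaCl, MgCl2, Triton X-100, 2 h RT. Released choline detected via choline oxidase/peroxidase/Amplex-type reagent, 20 min, resorufin fluorescence 531/598 nm; % inhibition vs no-compound and no-enzyme controls, concentration-response curve.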

CCCCCC1CN(CC(=O)O)C(=O)c2cc(-c3ccc(Cl)cc3)nn21 (stereo not shown) [Compound I-0003]
IC50: ≥ 1000 nM

C[C@H]1CN(Cc2ccc(C#N)cc2)C(=O)c2cc(-c3ccc(Cl)cc3NC(=O)CN(C)C)nn21 [Compound I-0332]
IC50: 10 to 100 nM

CCCCCC1CN(Cc2ccc(Oc3ccccc3)cc2)C(=O)c2cc(-c3ccc(Cl)cc3)nn21 (stereo not shown) [Compound I-0146]
IC50: ≥ 1000 nM

CCCCCC1CN(CC(=O)N2CCC(CC(=O)O)CC2)C(=O)c2cc(-c3ccc(Cl)cc3)nn21 (stereo not shown) [Compound I-0048]
IC50: 10 to 100 nM

O=C(O)c1cccc(CN2CC(COCc3ccccc3)n3nc(-c4ccc(Cl)cc4)cc3C2=O)c1 (stereo not shown) [Compound I-0173]
IC50: 100 to 1000 nM

CCCCC1CN(c2ccc(CCC(=O)O)cc2)C(=O)c2cc(-c3ccc(Cl)cc3)nn21 (stereo not shown) [Compound I-0287]
IC50: ≥ 1000 nM

CCCCC1CN(Cc2ccc(C#N)cc2)C(=O)c2cc(-c3ccc(S(F)(F)(F)(F)F)cc3)nn21 (stereo not shown) [Compound I-0372]
IC50: 100 to 1000 nM

CCCCCC1CN(CC(=O)N[C@H](C(=O)O)c2ccccc2)C(=O)c2cc(-c3ccc(Cl)cc3)nn21 (stereo partly shown) [Compound I-0069]
IC50: < 10 nM

CCOC(=O)C1CCN(C(=O)CN2CC(C)(C)n3nc(-c4ccc(Cl)cc4)cc3C2=O)CC1 [Compound I-0015]
IC50: ≥ 1000 nM

CCCCC1CN(CC(=O)N2CCO[C@H](C)C2)C(=O)c2cc(-c3ccc(Cl)cc3)nn21 (stereo partly shown) [Compound I-0240]
IC50: 100 to 1000 nM

C[C@H]1CN(CC(=O)N2CCOCC2)C(=O)c2cc(-c3ccc(Cl)cc3)nn21 [Compound I-0152]
IC50: ≥ 1000 nM

CCCCCC1CN(CC(=O)NC2CCC[C@@H]2C(=O)OCC)C(=O)c2cc(-c3ccc(Cl)cc3)nn21 (stereo partly shown) [Compound I-0051]
IC50: 100 to 1000 nM

CCCCC1CN(Cc2ccc(C#N)cc2)C(=O)c2cc(-c3ccc(OC(F)(F)F)cc3CC#N)nn21 (stereo not shown) [Compound I-0192]
IC50: 100 to 1000 nM

CCCCCC1CN(c2cccc(OCC(=O)O)c2)C(=O)c2cc(-c3ccc(Cl)cc3)nn21 (stereo not shown) [Compound I-0203]
IC50: ≥ 1000 nM

CCCCCC1CN(CC(=O)NCc2ccccc2C(=O)O)C(=O)c2cc(-c3ccc(Cl)cc3)nn21 (stereo not shown) [Compound I-0119]
IC50: 10 to 100 nM

CCCC(NC(=O)CN1C[C@H](C)n2nc(-c3ccc(Cl)cc3)cc2C1=O)C(=O)O (stereo partly shown) [Compound I-0161]
IC50: 100 to 1000 nM

CCCCCC1CN(CC(=O)N2CCCCC2CCN2CCOCC2)C(=O)c2cc(-c3ccc(Cl)cc3)nn21 (stereo not shown) [Compound I-0109]
IC50: ≥ 1000 nM

CCCCC1CN(CC(=O)NCCc2cn[nH]c2)C(=O)c2cc(-c3ccc(Cl)cc3)nn21 (stereo not shown) [Compound I-0234]
IC50: 100 to 1000 nM

CCOC(=O)CN1CC(C2CC2)n2nc(-c3ccc(Cl)cc3)cc2C1=O (stereo not shown) [Compound I-0018]
IC50: ≥ 1000 nM

CCCCC1CN(CC(=O)NC(C#N)C#N)C(=O)c2cc(-c3ccc(Cl)cc3)nn21 (stereo not shown) [Compound I-0231]
IC50: ≥ 1000 nM

CCCCCC1CN(CC(=O)Nc2ccc(CCC(=O)O)cc2)C(=O)c2cc(-c3ccc(Cl)cc3)nn21 (stereo not shown) [Compound I-0058]
IC50: 100 to 1000 nM

CCCCC1CN(Cc2ccc(C#N)cc2)C(=O)c2cc(N(C)Cc3ccc(Cl)cc3)nn21 (stereo not shown) [Compound I-0301]
IC50: ≥ 1000 nM

O=C(O)c1cccc(CN2C(=O)c3cc(-c4ccc(Cl)cc4)nn3[C@H]3CCC[C@H]32)c1 [Compound I-0149]
IC50: 100 to 1000 nM

CCCCCC1CN(Cc2ccc(C#N)cc2)C(=O)c2cc(-c3ccc(Cl)cc3)nn21 (stereo not shown) [Compound I-0132]
IC50: 10 to 100 nM

CCCCCC1CN(CC(=O)N2CCC(N(C)C)C2)C(=O)c2cc(-c3ccc(Cl)cc3)nn21 (stereo not shown) [Compound I-0034]
IC50: ≥ 1000 nM

CCCCC1CN(CC(=O)NCCC(=O)N(C)C)C(=O)c2cc(-c3ccc(Cl)cc3)nn21 (stereo not shown) [Compound I-0225]
IC50: 100 to 1000 nM

CCCCCC1CN(CC(=O)OCC2CCCCN2)C(=O)c2cc(-c3ccc(Cl)cc3)nn21 (stereo not shown) [Compound I-0114]
IC50: ≥ 1000 nM

CCCCCC1CN(CC(=O)N2CCC(C(=O)OCC)CC2)C(=O)c2cc(-c3ccc(Cl)cc3)nn21 (stereo not shown) [Compound I-0004]
IC50: 10 to 100 nM

— patent US10189843B2, “Fused pyrazole derivative having autotaxin inhibitory activity” (The University of Tokyo, priority 2014, dated 2019)
